Results from the supplement of paper PMC10307832.

Tests used:
Experiment in all cases: relative viability (nuclei count vs DMSO), 5 days (fraction); higher = more cells survive
[1] = compound: Cc1ccccc1C(C(=O)NC1CCCCC1)N(C(=O)Cn1ccnc1C)c1cccc(F)c1 [IDH-C35] + O=C(c1cc(Cc2n[nH]c(=O)c3ccccc23)ccc1F)N1CCN(C(=O)C2CC2)CC1 [Olaparib] (partner 8 µM)
Procedure, shortened: (§1)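 One day after seeding in 1536-well plates, lung cancer cell lines were dosed by pin tool. Dosing was either single-drug or a fixed anchor-drug dose plus five library-drug doses (not always all listed) in √10 steps. After 5 days, nuclei were stained in one fix-and-stain step and counted on 4× images, and relative viability is the nuclei count of treated wells over that of vehicle wells, given as the median of duplicate plates.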

[2] = compound: Cc1ccccc1C(C(=O)NC1CCCCC1)N(C(=O)Cn1ccnc1C)c1cccc(F)c1 [IDH-C35] + C[C@@H](Oc1cc(-c2cnn(C3CCNCC3)c2)cnc1N)c1c(Cl)ccc(F)c1Cl [Crizotinib] (partner 1 µM)
Procedure, shortened: as §1

[3] = compound: CC1=C(C(=NN1)C)CC2=C(C3=C(S2)N(C(=O)N(C3=O)C)CC(C)C)C(=O)N4C[C@@H](CO4)O + C[C@]1(O)C[C@@H](c2nc(-c3ccc4ccc(-c5ccccc5)nc4c3)c3c(N)nccn32)C1 [Linsitinib] (partner 1 µM)
Procedure, shortened: as §1

[4] = compound: Cc1ccccc1C(C(=O)NC1CCCCC1)N(C(=O)Cn1ccnc1C)c1cccc(F)c1 [IDH-C35] + Nc1nc2[nH]cc(CCc3ccc(C(=O)N[C@@H](CCC(=O)O)C(=O)O)cc3)c2c(=O)[nH]1 [Pemetrexed] (partner 0.2 µM)
Procedure, shortened: as §1

| Cell Line | relative viability ([1]; first compound 0.08 µM) | relative viability ([1]; first compound 0.253 µM) | relative viability ([1]; first compound 0.8 µM) | relative viability ([1]; first compound 2.53 µM) | relative viability ([1]; first compound 8 µM) | relative viability ([2]; first compound 0.08 µM) | relative viability ([2]; first compound 0.253 µM) | relative viability ([2]; first compound 0.8 µM) | relative viability ([2]; first compound 2.53 µM) | relative viability ([2]; first compound 8 µM) | relative viability ([3]; first compound 0.0025 µM) | relative viability ([3]; first compound 0.007906 µM) | relative viability ([3]; first compound 0.025 µM) | relative viability ([3]; first compound 0.07906 µM) | relative viability ([3]; first compound 0.25 µM) | relative viability ([4]; first compound 0.08 µM) | relative viability ([4]; first compound 0.253 µM) | relative viability ([4]; first compound 0.8 µM) | relative viability ([4]; first compound 2.53 µM) | relative viability ([4]; first compound 8 µM) |
| --- | --- | --- | --- | --- | --- | --- | --- | --- | --- | --- | --- | --- | --- | --- | --- | --- | --- | --- | --- | --- |
| NCI-H3122 | 0.583 | 0.537 | 0.587 | 0.623 | 0.665 | 0.292 | 0.299 | 0.295 | 0.252 | 0.27 | 1.04 | 1.08 | 0.99 | 0.976 | 0.947 | 0.203 | 0.182 | 0.203 | 0.207 | 0.2 |
| COR-L23 | 0.332 | 0.391 | 0.317 | 0.31 | 0.349 | 0.634 | 0.626 | 0.619 | 0.673 | 0.667 | 0.975 | 0.859 | 0.601 | 0.788 | 0.713 | 0.18 | 0.205 | 0.2 | 0.201 | 0.173 |
| NCI-H2087 | 0.561 | 0.533 | 0.627 | 0.58 | 0.558 | 0.91 | 0.898 | 0.843 | 0.902 | 0.841 | 0.962 | 1.08 | 1.02 | 1.02 | 0.928 | 0.732 | 0.592 | 0.678 | 0.647 | 0.697 |
| LC-2-ad | 0.728 | 0.707 | 0.715 | 0.729 | 0.702 | 0.463 | 0.454 | 0.426 | – | 0.485 | 0.848 | 0.928 | 0.9 | 0.869 | 0.843 | 0.265 | 0.285 | 0.275 | 0.266 | 0.278 |
| NCI-H1915 | 0.267 | 0.269 | 0.245 | 0.274 | 0.256 | 0.855 | 0.865 | 0.805 | 0.904 | 0.917 | 1.12 | 1.13 | 1.08 | 1.05 | 1.17 | 0.555 | 0.475 | 0.508 | 0.54 | 0.461 |
| NCI-H2023 | 0.513 | 0.455 | 0.503 | 0.474 | 0.446 | 0.668 | 0.627 | 0.637 | 0.636 | 0.592 | 0.648 | 0.786 | 0.696 | 0.777 | 0.683 | 0.262 | 0.246 | 0.245 | 0.241 | 0.2 |
| COR-L 105 | 0.606 | 0.681 | 0.713 | 0.614 | 0.714 | 0.745 | 0.942 | 0.688 | 0.72 | 0.921 | 1.1 | 0.943 | 0.853 | 0.961 | 0.95 | 1.03 | 1.19 | 0.954 | 0.912 | 1 |
| RERF-LC-KJ | 0.853 | 0.896 | 0.963 | 0.985 | 0.869 | 0.887 | 0.822 | 0.794 | 0.904 | 0.763 | 0.973 | 0.931 | 0.925 | 0.899 | 0.95 | 0.431 | 0.492 | 0.478 | 0.481 | 0.523 |
